Test results as given in patent US8211907B2, “Fused indane compound” (priority 2007, dated 2012).
Structures can show the parent of a compound that is named as a salt. Where two headings read alike, the source gives them in different places.

Legend:
[1] = target: NMDA receptor; assay: [3H] MK-801 binding test on rat brain membrane specimen
[2] = tested on: T1, NMDA receptor; assay: Intracellular calcium concentration determination by FLIPR in rat first-generation neurocytes (NMDA/glycine stimulation); assay type: cell-based; settings: rat first-generation neurocytes (DIV7-9), NMDA/glycine-induced calcium rise, 10 μM MK-801 = 100% inhibition
T1 construct: IC50
Procedure: 1) Preparation of Rat First-Generation Neurocytes
Anesthetized with ether, Wistar rats (Nippon SLC) at the 19th day of pregnancy were let die from blood loss by breast incision. The abdomen was cut open, and the womb was extracted, and the fetus was removed. The whole brain was removed, the hemicerebrum was then isolated in Neurobasal medium (Glu, Asp-free; Gibco), and the meninx was removed. The hemicerebrum was recovered by centrifugation, and suspended in a cell-dispersing solution (0.36 mg/ml papain, 150 U/ml DNase 1, 0.02% L-cysteine monohydrochloride monohydrate, 0.02% bovine serum albumin, 0.5% glucose, Ca^2+, Mg^2+-free PBS), and treated at 37° C. for 15 minutes. This was centrifuged at 400 g for 5 minutes, and the supernatant was removed by suction. This was suspended in a neurocyte culture medium (Sumitomo Bakelite), and the cell masses were removed using a filter. The number of the living cells was counted, and 100,000 cells/well were incubated on a 96-well plate (Biocoat PDL96W black/clear (Nippon Becton Dickinson)) (37° C., 5% CO2).
2) Intracellular Calcium Concentration Determination by FLIPR (Fluorometric Imaging Plate Reader)
The culture medium of rat first-generation neurocytes (DIV7-9) was removed by suction, and the cells were washed once with a 100 μl assay buffer (Hank's Balanced Salt Solution (Ca^2+, Mg^2+-free), 20 mM Hepes-NaOH (pH 7.4), 1 mM CaCl2). 100 μl of the assay buffer containing Fluo3 (Dojin Chemical) was added thereto, and incubated for 1 hour (37° C., 5% CO2). The cells were washed three times with 100 μl of the assay buffer, and then a compound solution dissolved in 1 μl of dimethylsulfoxide, and 100 μl of the assay buffer containing 2.5 μM (final concentration) tetrodotoxin were added thereto and incubated for 30 minutes (37° C., 5% CO2). The fluorescent intensity was measured at intervals of two seconds, and ten seconds after the measurement start, 50 μl of a ligand solution (Hank's Balanced Salt Solution (Ca^2+, Mg^2+-free), 20 mM Hepes-NaOH (pH 7.4), 1 mM CaCl2, 9 μM NMDA, 30 μM glycine) containing the compound solution dissolved in 0.5 μl of dimethylsulfoxide was added thereto, and the fluorescent intensity was measured for 120 seconds from the start of the measurement. The data measured for total of 120 seconds (60 times in total) were averaged.

[3] = target: NMDA receptor
[4] = tested on: male ddy mouse; assay: MES (maximal electroshock seizure) inhibitory action; assay type: in vivo; settings: for ED50: oral administration, electroshock 30 minutes later
Procedure: A test compound was orally administered to a male ddy mouse, an inhibitory action on the seizures caused by an electroshock applied at 30 minutes later (Interval 10 ms, Duration 0.9 ms, Amplitude 50 mA, Gate 0.2 s) was evaluated, and an NMDA receptor inhibitory action in vivo was measured (Palmer G C, Harris E W, Ray R, Stagnitto M L, Schmiesing R J. Arch Int Pharmacodyn Ther. 1992 May-June; 317: 16-34).

[5] = Mus musculus, po, 0.5 h, read-out: ED50

SMILES | Ki [3] [µM] | ED50 [4, 5] [mg/kg] | Ki [1] [µM] | also measured
CC[C@]12CCCN[C@H]1c1ccccc1C2 (single isomer, unassigned) [Example 83-2, (4aR*,9bR*)-4a-ethyl-2,3,4,4a,5,9b-hexahydro-1H-indeno[1,2-b]pyridine hydrochloride] |  |  |  | Ki ([1]; hydrochloride): 2.7 µM; IC50 ([2]; hydrochloride, read-out: IC50): 12 µM
Cc1cc2c(s1)C[C@]1(C)CCCN[C@H]21 [Example 15] | 8.5 | 38 |  | 
CN1CCC[C@]2(C)Cc3ccccc3[C@H]12 (racemic) [Example 42, (4aRS,9bRS)-1,4a-dimethyl-2,3,4,4a,5,9b-hexahydro-1H-indeno[1,2-b]pyridine methanesulfonate] | 1.3 | 31 |  | 
CC(C)[C@]12CCCN[C@@H]1c1ccccc1C2 [Example 32] | 6.8 | 26 |  | 
COc1ccc2c(c1)[C@H]1N(C)CCC[C@@]1(C)C2 [Example 56] |  |  | 1.5 | 
C[C@]12CCCN[C@@]1(C)c1ccccc1C2 (racemic) [Example 63, (4aRS,9bRS)-4a,9b-dimethyl-2,3,4,4a,5,9b-hexahydro-1H-indeno[1,2-b]pyridine hydrochloride] |  | 5.8 | 0.8 | IC50 ([2]; read-out: IC50): 3 µM
c1ccc2c(c1)C[C@H]1CCCN[C@@H]21 (racemic) [Compound A, (4aRS,9bRS)-2,3,4,4a,5,9b-hexahydro-1H-indeno[1,2-b]pyridine, reference compound] | 38 | > 80 |  | anti-seizure action ([4]; at 80 mg/kg, oral): did not exhibit an anti-seizure action
C[C@]12CCCCN[C@H]1c1ccccc1C2 (racemic) [Example 38-1, (5aRS,10bRS)-5a-methyl-1,2,3,4,5,5a,6,10b-octahydroindeno[1,2-b]azepine hydrochloride] |  |  | 0.5 | 
c1ccc([C@]23CCCN[C@H]2c2ccccc2C3)cc1 [Example 3] |  | 39 | 1.2 | IC50 [2]: 6.8 µM
c1ccc([C@@H]2c3ccccc3[C@@H]3NCCC[C@H]23)cc1 (racemic) [Compound C, reference compound] | 20 |  |  | 
C[C@@]12CCCN[C@@H]1c1ccccc1CC2 [Example 17] | 2 | 4.2 |  | 
C[C@@]12CCCN[C@@H]1c1ccccc1C2 [Example 82, (4aS,9bS)-4-a-methyl-2,3,4,4a,5,9b-hexahydro-1H-indeno[1,2-b]pyridine hydrochloride] | 6.7 | 19 |  | IC50 ([2]; read-out: IC50): 94 µM
C[C@]12CCCN[C@H]1c1ccccc1C2 (racemic) [Example 22, (4aRS,9bRS)-4a-methyl-2,3,4,4a,5,9b-hexahydro-1H-indeno[1,2-b]pyridine hydrochloride] |  | 11 | 5.1 | IC50 ([2]; read-out: IC50): 34 µM
C[C@@]12CCCN[C@@H]1c1ccccc1S2 (racemic) [Example 13, (4aRS,9bRS)-4a-methyl-1,2,3,4,4a,9b-hexahydro[1]benzothieno[3,2-b]pyridine hydrochloride] |  | 14 | 2 | 
C[C@]12CCCN[C@H]1c1ccccc1C2 [Example 81, (4aR,9bR)-4a-methyl-2,3,4,4a,5,9b-hexahydro-1H-indeno[1,2-b]pyridine hydrochloride] |  | 9.1 | 2 | IC50 ([2]; read-out: IC50): 21 µM
C[C@]12CCCCN[C@@H]1c1ccccc1C2 (racemic) [Example 38-2, (5aRS,10bSR)-5a-methyl-1,2,3,4,5,5a,6,10b-octahydroindeno[1,2-b]azepine hydrochloride] |  |  | 6.3 | 
CCOC[C@]12CCCN[C@@]1(C)c1ccccc1C2 [Example 69] |  |  | 1.3 | 
CC[C@]12CCCN[C@H]1c1ccccc1C2 (racemic) [Example 1, (4aRS,9bRS)-4a-ethyl-2,3,4,4a,5,9b-hexahydro-1H-indeno[1,2-b]pyridine hydrochloride] |  | 6.8 | 0.9 | IC50 ([2]; read-out: IC50): 5.1 µM
C[C@]12CCCN[C@@]1(C)c1ccccc1C2 (single isomer, unassigned) [Example 84-2, (4aR*,9bR*)-4a,9b-dimethyl-2,3,4,4a,5,9b-hexahydro-1H-indeno[1,2-b]pyridine hydrochloride] |  |  |  | Ki ([1]; hydrochloride): 1.1 µM; IC50 ([2]; hydrochloride, read-out: IC50): 6.1 µM; ED50 ([4]; hydrochloride): 28 mg/kg, po
C[C@]12CCCN[C@@]1(C)c1ccccc1C2 (single isomer, unassigned) [Example 84-1, (4aR*,9bR*)-4a,9b-dimethyl-2,3,4,4a,5,9b-hexahydro-1H-indeno[1,2-b]pyridine hydrochloride] |  |  |  | Ki ([1]; hydrochloride): 0.5 µM; IC50 ([2]; hydrochloride, read-out: IC50): 1.8 µM; ED50 ([4]; hydrochloride): 4.2 mg/kg, po
c1ccc([C@@H]2c3ccccc3[C@@H]3NCCC[C@H]23)cc1 (racemic) [Compound B, (4aRS,5RS,9bRS)-5-phenyl-2,3,4,4a,5,9b-hexahydro-1H-indeno[1,2-b]pyridine, reference compound] | 23 |  |  | 
COC[C@]12CCCN[C@@]1(C)c1ccccc1C2 [Example 68] | 0.6 | 26 |  | 
CC[C@]12CCCN[C@H]1c1cc(COC)ccc1C2 (racemic) [Example 73, (4aRS,9bRS)-4a-ethyl-8-(methoxymethyl)-2,3,4,4a,5,9b-hexahydro-1H-indeno[1,2-b]pyridine hydrochloride] |  |  | 7.1 | 
CC[C@]12CCCN[C@H]1c1ccccc1C2 (single isomer, unassigned) [Example 83-1, (4aR*,9bR*)-4a-ethyl-2,3,4,4a,5,9b-hexahydro-1H-indeno[1,2-b]pyridine hydrochloride] |  | 6.2 |  | Ki ([1]; hydrochloride): 0.6 µM; IC50 ([2]; hydrochloride, read-out: IC50): 3.1 µM
CC[C@]12CCCN[C@H]1c1cc(CO)ccc1C2 [Example 77] |  |  | 4 | 
